# US12622918B2, “Formulations and dosages for administering a compound that inhibits MCL1 protein” (Amgen Inc., priority 2019, dated 2026)
# Experiments:
# [1] = target: Dog MCL1 (Canis lupus familiaris, UniProt Q8HYS5); test: Cell-free TR-FRET BIM-binding assay, Dog MCL1; settings: BIM-binding partner Dog MCL1; n = 3
# [2] = target: Mouse MCL1 (Mus musculus, UniProt P97287); test: Cell-free TR-FRET BIM-binding assay, Mouse MCL1; settings: BIM-binding partner Mouse MCL1; n = 3
# [3] = tested on: KMS-12-PE; test: Cell viability (CellTiterGlo), KMS-12-PE; type: cell-based; settings: Homo sapiens, Multiple myeloma, 24 hours, 10% FBS, read-out: AMS 176 IC50
# [4] = tested on: KMS-28-BM; test: Cell viability (CellTiterGlo), KMS-28-BM; type: cell-based; settings: Multiple myeloma, 24 hours, 10% FBS, read-out: AMS 176 IC50
# [5] = tested on: Karoas620; test: Cell viability (CellTiterGlo), Karoas620; type: cell-based; settings: Karoas620, Multiple myeloma; 24 hours; 10% FBS; read-out: AMS 176 IC50
# [6] = tested on: MM1S; test: Cell viability (CellTiterGlo), MM1S; type: cell-based; settings: Homo sapiens, MM1.S, Multiple myeloma, 24 hours, 10% FBS, read-out: AMS 176 IC50
# [7] = tested on: HEL 92.1.7; test: Cell viability (CellTiterGlo), HEL 92.1.7; type: cell-based; settings: Homo sapiens; HEL 92.1.7, AML; 24 hours; 10% FBS; read-out: AMS 176 IC50
# [8] = tested on: Toledo; test: Cell viability (CellTiterGlo), Toledo; type: cell-based; settings: Homo sapiens, NHL, 24 hours, 10% FBS, read-out: AMS 176 IC50
# [9] = tested on: Pfeiffer; test: Cell viability (CellTiterGlo), Pfeiffer; type: cell-based; settings: Homo sapiens, NHL, 24 hours, 10% FBS, read-out: AMS 176 IC50
# [10] = tested on: RL; test: Cell viability (CellTiterGlo), RL; type: cell-based; settings: Homo sapiens, NHL, 24 hours, 10% FBS, high dose 20 μM, read-out: AMS 176 IC50
# [11] = target: T1, MCL1-BAK protein-protein interaction (Homo sapiens, UniProt Q07820); test: MCL1-BAK protein-protein interaction PD assay, HEK 293M MCL1(1-327)-Luc/BAK-Luc Matrigel plug model in mice; type: in vivo; settings: for inhibition of MCL1-BAK protein-protein interaction, as measured by luciferase activity: 2-, vs vehicle p<0.0025, female athymic nude mice
# T1 construct: human MCL1 encoding amino acids 1-327 and full-length human BAK; expressed in transfected cells; host or cells: HEK 293M cells, stably transfected, in Matrigel plugs in female athymic nude mice
# Excerpt: The inhibition of MCL1-BAK protein-protein interaction was used as a pharmacodynamics (PD) assay in HEK 293M cells stably transfected so as to express the N-terminal fragment of human MCL1 encoding amino acids 1-327 and full-length human BAK, linked to the N- and C-terminal fragments of firefly luciferase, respectively (interaction between MCL1 [1-327] and BAK results in the complementation of the C- and N-terminal fragments of luciferase and the formation of active luciferase).
# [12] = tested on: BAK; test: BAK activation in OPM2-Luc tumor xenografts (PD); type: in vivo, mice; settings: for BAK activation: 2-, vs vehicle p<0.05
# Experimental: (§1) Activation of the pro-apoptotic pore-forming protein BAK and proteolytic cleavage of the cysteine-aspartic acid protease caspase 3 (hallmarks of the induction of apoptosis) in MCL1-dependent OPM2-Luc multiple myeloma tumor cells served as a PD assay. Female athymic nude mice were injected with 5×10^6 cells in 0.1 mL subcutaneously (SC). […] Mice were euthanized 2, 4, 8, 12, and 24 hours postdose (n=3/group), terminal plasma samples were collected for PK analysis, and tumors were halved and snap frozen in liquid nitrogen for PK and molecular analyses. Tumor lysates were prepared for evaluation of BAK activation and caspase 3 cleavage using an electrochemiluminescence immunoassay. Tumors treated with vehicle (25% HPβCD, pH 8) served as a negative control and indicated the baseline level of apoptosis.
# [13] = tested on: caspase 3; test: Caspase 3 cleavage in OPM2-Luc tumor xenografts (PD); type: in vivo, mice; settings: for induction of caspase 3 cleavage: 4-, vs vehicle p<0.05
# Experimental: as §1
# [14] = Plasma concentration in OPM2-Luc tumor-bearing mice; type: in vivo; settings: 60 mg/kg oral gavage; female athymic nude mice
# Experimental: as §1
# [15] = tested on: OPM2-Luc tumor xenografts; test: OPM2-Luc xenograft efficacy, intermittent dosing; type: in vivo; settings: for animals tumor free: day 26
# Experimental: OPM2-Luc cells (5×10^6) were implanted subcutaneously into female athymic nude mice. […] With all tested doses and schedules, dose-dependent TGI was observed (FIG. 5). […] Six of 10 animals in the 60 mg/kg 5 days on/2 days off group and 10 of 10 animals in the once daily group were tumor free on day 26.
# [16] = tested on: Molm13-Luc orthotopic tumors; test: MOLM-13 Luc acute myeloid leukemia orthotopic model; type: in vivo; settings: for TGI (tumor burden, whole body luminescence): female NSG mice
# Experimental: On day 0, 70 female NSG mice were injected IV with 5×10^4 human Molm13-Luc AML tumor cells.
# [17] = tested on: dogs; test: 28-day GLP IV toxicology study in dogs; type: in vivo; settings: dog
# Excerpt: The doses selected for the 28-day IV rat and dog toxicology studies were intended to characterize the toxicity of the compound of Formula I and provide data to support a starting dose in the first-in-human (FIH) study. An IV route of administration and a dosing schedule of 2 days on/5 days off was used to support the anticipated clinical route and dosing schedule.
# [18] = tested on: subjects with relapsed/refractory multiple myeloma; test: Phase 1 FIH study, multiple myeloma part 1b (QW); type: in vivo, human
# Experimental: In part 1a, subjects were enrolled across 8 cohorts, with doses ranging from 30 to 240 mg/m^2 QD2. In part 1b, subjects were enrolled across 2 cohorts, with doses of 120/180-mg/m^2 or 120/240-mg/m^2.
# T1 sequence (Q07820 1-327): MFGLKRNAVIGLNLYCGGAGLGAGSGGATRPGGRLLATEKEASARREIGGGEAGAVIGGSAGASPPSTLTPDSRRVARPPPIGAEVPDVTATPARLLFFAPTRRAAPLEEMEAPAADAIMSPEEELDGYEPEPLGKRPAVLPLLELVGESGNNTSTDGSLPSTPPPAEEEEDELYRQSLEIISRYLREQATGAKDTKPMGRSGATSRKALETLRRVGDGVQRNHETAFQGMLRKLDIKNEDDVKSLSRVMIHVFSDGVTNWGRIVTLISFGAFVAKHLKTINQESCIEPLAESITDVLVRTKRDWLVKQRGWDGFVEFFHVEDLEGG
# Mouse MCL1, sequence (P97287 whole entry): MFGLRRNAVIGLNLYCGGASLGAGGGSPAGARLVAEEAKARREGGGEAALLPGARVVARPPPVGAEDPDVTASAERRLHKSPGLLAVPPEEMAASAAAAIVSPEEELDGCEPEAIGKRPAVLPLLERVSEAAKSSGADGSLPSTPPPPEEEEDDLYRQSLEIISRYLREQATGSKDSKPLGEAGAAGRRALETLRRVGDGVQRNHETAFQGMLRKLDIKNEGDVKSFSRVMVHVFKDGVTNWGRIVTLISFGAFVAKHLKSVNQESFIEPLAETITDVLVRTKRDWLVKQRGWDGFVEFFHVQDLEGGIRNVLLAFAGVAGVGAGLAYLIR
# Dog MCL1, sequence (Q8HYS5 whole entry): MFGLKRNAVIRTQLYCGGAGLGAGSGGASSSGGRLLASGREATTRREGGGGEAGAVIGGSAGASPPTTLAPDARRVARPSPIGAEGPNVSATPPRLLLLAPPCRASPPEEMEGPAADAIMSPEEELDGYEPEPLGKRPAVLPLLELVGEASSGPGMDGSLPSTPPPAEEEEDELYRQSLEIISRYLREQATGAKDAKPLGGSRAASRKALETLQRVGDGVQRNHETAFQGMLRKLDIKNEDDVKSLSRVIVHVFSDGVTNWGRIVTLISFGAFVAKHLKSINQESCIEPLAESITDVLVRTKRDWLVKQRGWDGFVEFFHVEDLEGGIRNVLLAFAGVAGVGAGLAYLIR
smiles,measurement,setting,value
CO[C@H]1/C=C/C[C@H](C)[C@@H](C)S(=O)(=O)NC(=O)c2ccc3c(c2)N(C[C@@H]2CC[C@H]21)C[C@@]1(CCCc2cc(Cl)ccc21)CO3 [AMG 176],IC50,[1],0.284 nM
same,IC50,[2],49.8 nM
same,IC50,[3],131 nM
same,IC50,[4],205 nM
same,IC50,[5],487 nM
same,IC50,[6],5120 nM
same,IC50,[7],5990 nM
same,IC50,[8],9700 nM
same,IC50,[9],18900 nM
same,IC50,[10],> 20000 nM
same,"inhibition of MCL1-BAK protein-protein interaction, as measured by luciferase activity","[11]; 3 mg/kg, 8-, 12-, and 24-hour time points",Statistically significant inhibition
same,"inhibition of MCL1-BAK protein-protein interaction, as measured by luciferase activity","[11]; 10 mg/kg, 4-, 8-, and 12-hour time points",Statistically significant inhibition
same,"inhibition of MCL1-BAK protein-protein interaction, as measured by luciferase activity","[11]; 30 mg/kg, 4-, 8-, 12-, and 24-hour time points",Statistically significant inhibition
same,inhibition of the interaction between human MCL1 and human BAK in vivo,[11]; summary statement,dose-dependent inhibition
same,BAK activation,"[12]; 30 mg/kg oral gavage, 4-, and 8-hour time points",Statistically significant BAK activation
same,time point of greatest BAK activation,[12]; 60 mg/kg oral gavage,4 h
same,BAK activation,"[12]; 60 mg/kg oral gavage, 4-, 8-, and 12-hour time points",Statistically significant BAK activation
same,"induction of multiple markers of apoptosis, including BAK activation and caspase 3 cleavage","[12]; OPM2-Luc tumor xenografts, summary statement",dose-dependent induction
same,induction of caspase 3 cleavage,"[13]; 20 mg/kg oral gavage, 8-, and 12-hour time points",Statistically significant induction of caspase 3 cleavage
same,induction of caspase 3 cleavage,"[13]; 30 mg/kg oral gavage, 2-, 8-, and 12-hour time points",Statistically significant induction of caspase 3 cleavage
same,induction of caspase 3 cleavage,"[13]; 60 mg/kg oral gavage, 2-, 8-, 12-, and 24-hour time points",Statistically significant induction of caspase 3 cleavage
same,induction of cleaved caspase 3,"[13]; 60 mg/kg, 2 hours postdose, persisted to 12 hours",approximately 7.5 fold
same,cleaved caspase levels above control,"[13]; 60 mg/kg, 24 hours postdose",5 fold
same,time point of peak AMG 176 plasma concentration,[14],4 h
same,TGI,[15]; 30 mg/kg 2 days on/5 days off,54%
same,TGI,[15]; 30 mg/kg 5 days on/2 days off,85%
same,effect on growth of established OPM2-Luc tumors,"[15]; 30 mg/kg and 60 mg/kg, two days on/5 days off and 5 days on/2 days off, summary statement",significantly inhibited the growth
same,TGI,[15]; 30 mg/kg once daily oral gavage,84%
same,tumor regression,[15]; 60 mg/kg 2 days on/5 days off,21%
same,tumor regression,[15]; 60 mg/kg 5 days on/2 days off,87%
same,animals tumor free,[15]; 60 mg/kg 5 days on/2 days off,Six of 10
same,tumor regression,[15]; 60 mg/kg once daily,100%
same,animals tumor free,[15]; 60 mg/kg once daily,10 of 10
same,overt toxicity by body weight and body score assessment,"[15]; 30 or 60 mg/kg, all schedules",No evidence of overt toxicity
same,"TGI (tumor burden, whole body luminescence)",[16]; 30 mg/kg oral QD2,28%
same,"TGI (tumor burden, whole body luminescence)",[16]; 60 mg/kg oral QD2,69%
same,"TGI (tumor burden, whole body luminescence)",[16]; 100 mg/kg oral QD,86%
same,overt toxicity by changes in body weight,[16]; all AMG 176 groups,No evidence of overt toxicity
same,finding related to morbidity and mortality,[17],mucosal epithelial degeneration in the small and large intestines
same,dose with mortality,"[17]; IV, 28-day",20 mg/kg
same,highest-nonseverely-toxic dose (HNSTD),"[17]; IV, 2 days on/5 days off, 28-day",10 mg/kg
same,"Grade 3 adverse events, subjects",[18]; MM part 1b,83%
same,"adverse events considered related to AMG 176, subjects",[18]; MM part 1b,83 %/a
same,adverse events leading to discontinuation of investigational product,[18]; MM part 1b,no adverse event led to discontinuation
same,fatal adverse events,[18]; MM part 1b,no fatal adverse events occurred
same,"grade 4 adverse events, subjects",[18]; MM part 1b,17%
same,hypertension of grade 3 or higher,[18]; MM part 1b,33%
same,neutropenia of grade 3 or higher,[18]; MM part 1b,67%
same,serious adverse events,[18]; MM part 1b,No serious adverse events were reported
same,"adverse events, subjects","[18]; MM part 1b QW, 6 subjects",83%
same,"diarrhea, subjects","[18]; MM part 1b, any grade",33%
same,"fatigue, subjects","[18]; MM part 1b, any grade",33%
same,"hypertension, subjects","[18]; MM part 1b, any grade",33%
same,"nausea, subjects","[18]; MM part 1b, any grade",50%
same,"neutropenia, subjects","[18]; MM part 1b, any grade",67%
same,exposures (Cmax and AUC) versus dose,"[18]; MM part 1b, 6 subjects, preliminary",generally increased with increasing doses
